Consider seven molecules from US11767314B2, “Bioenergetic nicotinic acid glycerol esters, compositions and methods of using same” (Conopco, Inc., priority 2018, dated 2023).

“Also recorded” adds a separate entry of the source.

This assay concerns Human dermal fibroblasts F5140616B1. The assay is described as follows: Effect of NAEs on AMP/ATP Ratio in Fibroblast Cells (metabolites by LC/MS). The class given is cell-based. Further details: AMP/ATP Ratio: scale not given here. The note with it: for AMP/ATP Ratio / Increase Over Vehicle (AMP/ATP ratio): 500 uM, fibroblasts treated every other day for 6 days; for AMP/ATP Ratio: vehicle (ethanol) 367; for Increase Over Vehicle (AMP/ATP ratio): vs ethanol vehicle; for AMP/ATP ratio, result in words: fibroblast cells, 500 uM where stated. The protocol:
The experiments in this Example 2 were conducted in the following manner.
Method for Treatment of Fibroblasts with Bioenergetic Compounds
Human dermal fibroblasts F5140616B1 (MatTek Corporation, Ashland, Mass.) were derived from a donor and cultured in DMEM media (ThermoFisher Cat #31053-036) supplemented with FBS (Hyclone/Fisher Scientific Cat #SH30007103), glutamine (ThermoFisher Cat #35050-61) and sodium pyruvate (ThermoFisher Cat #11360-070). At the third passage, the cells were detached from the culture vessels using Trypsin/EDTA (T/E) solution (0.25 mg/mL) (Lonza Cat #CC-5012) and used for experimentation.
Cells were treated with the compounds every other day for a total of 6 days. Treatment involved removal of the spent media+compounds and replenishment with fresh media+compounds. At the end of the experiment, the cells were detached from the culture vessels using the standard procedure outlined above. The cells were centrifuged and then washed 1× with Dulbecco's PBS with no calcium or magnesium (ThermoFisher Cat #14190144) and then accurate cell counts were taken using a Scepter cell counter (EMD Millipore). The cells were then split equally into 2 Eppendorf tubes, and centrifuged. Excess PBS was then removed from the resulting cell pellets. The pellets were then immediately frozen on dry ice and sent to an external laboratory for analysis of metabolites by LC/MS.

With `CC(=O)O[C@@H]1[C@@H](CO)OC([n+]2cccc(C(N)=O)c2)[C@@H]1OC(C)=O.O=S(=O)([O-])C(F)(F)F` (stereo partly drawn) [JR1, 3-carbamoyl-1-((3R,4R,5R)-3,4-diacetoxy-5-(hydroxymethyl)tetrahydrofuran-2-yl)pyridin-1-ium trifluoromethanesulfonate], the “AMP/ATP Ratio” value was 756 and the “Increase Over Vehicle (AMP/ATP ratio)” value was determined as 106%.
For `CCCC(=O)O[C@@H]1[C@@H](CO)OC([n+]2cccc(C(N)=O)c2)[C@@H]1OC(=O)CCC.O=S(=O)([O-])C(F)(F)F` (stereo partly drawn) [JR2, 1-((3R,4R,5R)-3,4-bis(butyryloxy)-5-(hydroxymethyl)tetrahydrofuran-2-yl)-3-carbamoylpyridin-1-ium trifluoromethanesulfonate], the “AMP/ATP Ratio” value is given as 919 and the “Increase Over Vehicle (AMP/ATP ratio)” value amounted to 150%.
For `CC(=O)O[C@@H]1[C@@H](CO)OC(N2C=CCC(C(N)=O)=C2)[C@@H]1OC(C)=O` (stereo partly drawn) [JR3, (3R,4R,5R)-2-(3-carbamoylpyridin-1(4H)-yl)-5-(hydroxymethyl) tetrahydrofuran-3,4-diyl diacetate], the “AMP/ATP Ratio” value is listed as 1231 and the “Increase Over Vehicle (AMP/ATP ratio)” value amounted to 235%.
For `NC(=O)c1cccnc1` [Nicotinamide, reference compound], the “AMP/ATP Ratio” value is listed as 529; the “Increase Over Vehicle (AMP/ATP ratio)” value is 44%; the “AMP/ATP ratio, result in words” value is recorded as “somewhat elevated levels of AMP/ATP ratio over control vehicle”.
As to `CC1(C)OCC(COC(=O)c2cccnc2)O1` (stereo not shown) [VC1, (2,2-dimethyl-1,3-dioxolan-4-yl)methyl nicotinate], the “AMP/ATP Ratio” value is 1010; the “Increase Over Vehicle (AMP/ATP ratio)” value is on record as 175%; the “AMP/ATP ratio, result in words” value is “increased AMP/ATP ratio in testing; also recorded: notably increase the AMP/ATP ratio; also recorded: significantly elevated levels of AMP/ATP ratio over both, control vehicle and nicotinamide; also recorded: increase in the levels of AMP/ATP ratio; also recorded: demonstrably increased AMP/ATP ratio”.
As to `O=C(OCC(O)CO)c1cccnc1` (stereo not shown) [VC2, 2,3-dihydroxypropyl nicotinate], the “AMP/ATP ratio, result in words” value is “increased AMP/ATP ratio in testing; also recorded: notably increase the AMP/ATP ratio; also recorded: increase in the levels of AMP/ATP ratio; also recorded: demonstrably increased AMP/ATP ratio”.
Turning to `CC1(C)OCC(OC(=O)c2cccnc2)CO1` [VC4, 2,2-dimethyl-1,3-dioxan-5-yl nicotinate], the “AMP/ATP Ratio” value is given as 941; the “Increase Over Vehicle (AMP/ATP ratio)” value is on record as 156%; the “AMP/ATP ratio, result in words” value was “increased AMP/ATP ratio in testing; also recorded: notably increase the AMP/ATP ratio; also recorded: significantly elevated levels of AMP/ATP ratio over both, control vehicle and nicotinamide; also recorded: demonstrably increased AMP/ATP ratio”.
